Measured values as given in ChEMBL document CHEMBL1135297, “Enantioselective synthesis of S-(+)-2beta-carboalkoxy-3alpha-[bis(4-fluorophenyl)methoxy]tropanes as novel probes for the dopamine transporter” (Bioorg Med Chem Lett, 2002).
pIC50, pKi: −log10 of the molar value.

Key:
[1] = target: Sodium-dependent serotonin transporter (Rattus norvegicus, UniProt P31652); assay: Ability to displace [3H]citalopram radioligand, for the Serotonin transporter in rat brain; format: tissue-based
[2] = target: Norepinephrine transporter (Rattus norvegicus, UniProt Q9WTR4); assay: Ability to displace [3H]-nisoxatine radioligand for the Norepinephrine transporter in rat brain; format: tissue-based
Chain of Norepinephrine transporter (Q9WTR4 whole entry): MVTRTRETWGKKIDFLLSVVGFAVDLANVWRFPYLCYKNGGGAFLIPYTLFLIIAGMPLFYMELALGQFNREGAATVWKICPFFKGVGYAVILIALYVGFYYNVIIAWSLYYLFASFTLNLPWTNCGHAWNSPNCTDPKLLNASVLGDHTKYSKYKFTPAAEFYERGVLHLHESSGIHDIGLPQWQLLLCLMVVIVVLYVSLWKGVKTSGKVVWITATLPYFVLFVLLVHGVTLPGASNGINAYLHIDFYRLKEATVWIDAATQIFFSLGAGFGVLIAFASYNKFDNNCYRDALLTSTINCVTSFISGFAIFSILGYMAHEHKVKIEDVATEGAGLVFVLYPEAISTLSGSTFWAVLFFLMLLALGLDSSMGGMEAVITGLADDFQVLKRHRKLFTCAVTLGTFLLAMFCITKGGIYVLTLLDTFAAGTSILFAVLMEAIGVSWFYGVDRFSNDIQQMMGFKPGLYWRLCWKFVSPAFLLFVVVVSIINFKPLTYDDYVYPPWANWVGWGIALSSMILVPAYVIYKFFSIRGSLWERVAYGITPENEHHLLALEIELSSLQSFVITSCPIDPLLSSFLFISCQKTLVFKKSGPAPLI

[3] = target: Sodium-dependent dopamine transporter (Rattus norvegicus, UniProt P23977); assay: Ability to displace [3H]WIN-35 radioligand for the dopamine transporter 428 DAT in rat brain; format: tissue-based
Chain of Sodium-dependent dopamine transporter (P23977 whole entry): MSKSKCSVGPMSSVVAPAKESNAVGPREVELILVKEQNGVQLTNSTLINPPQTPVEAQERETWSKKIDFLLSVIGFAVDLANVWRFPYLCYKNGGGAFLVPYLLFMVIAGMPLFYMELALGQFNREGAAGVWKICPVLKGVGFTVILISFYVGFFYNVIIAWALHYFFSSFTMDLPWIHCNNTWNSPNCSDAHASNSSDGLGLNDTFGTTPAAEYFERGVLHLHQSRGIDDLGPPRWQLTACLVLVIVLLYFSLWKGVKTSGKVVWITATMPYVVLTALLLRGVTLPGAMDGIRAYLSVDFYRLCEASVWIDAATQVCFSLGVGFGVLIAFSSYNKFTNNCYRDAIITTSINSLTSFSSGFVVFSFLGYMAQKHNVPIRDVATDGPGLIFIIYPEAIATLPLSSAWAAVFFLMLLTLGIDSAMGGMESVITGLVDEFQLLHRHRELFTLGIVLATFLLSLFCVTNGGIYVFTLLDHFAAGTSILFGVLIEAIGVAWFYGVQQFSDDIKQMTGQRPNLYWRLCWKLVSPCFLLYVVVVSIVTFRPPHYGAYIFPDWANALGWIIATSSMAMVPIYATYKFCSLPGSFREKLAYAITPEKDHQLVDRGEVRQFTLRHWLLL

[4] = target: T1, Muscarinic acetylcholine receptor M1 (Rattus norvegicus, UniProt P08482); assay: Ability to displace [3H]pirenzepine radioligand for the Muscarinic acetylcholine receptor M1 in rat brain; format: tissue-based
T1 sequence (P08482 whole entry): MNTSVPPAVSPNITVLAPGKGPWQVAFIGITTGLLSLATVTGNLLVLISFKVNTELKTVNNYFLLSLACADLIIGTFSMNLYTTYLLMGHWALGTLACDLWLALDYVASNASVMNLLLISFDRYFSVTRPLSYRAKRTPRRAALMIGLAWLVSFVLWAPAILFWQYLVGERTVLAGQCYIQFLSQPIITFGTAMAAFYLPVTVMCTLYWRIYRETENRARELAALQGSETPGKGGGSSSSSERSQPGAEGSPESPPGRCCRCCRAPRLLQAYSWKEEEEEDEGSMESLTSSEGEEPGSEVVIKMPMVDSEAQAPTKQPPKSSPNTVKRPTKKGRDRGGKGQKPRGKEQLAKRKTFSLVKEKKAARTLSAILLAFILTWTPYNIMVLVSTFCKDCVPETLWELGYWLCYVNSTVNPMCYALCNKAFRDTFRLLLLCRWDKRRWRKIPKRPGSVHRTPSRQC

Rattus norvegicus = species: Rattus norvegicus; assay: Inhibition of [3H]DA uptake in rat synaptosomes; format: functional, Brain

Chain of Sodium-dependent serotonin transporter (P31652 whole entry): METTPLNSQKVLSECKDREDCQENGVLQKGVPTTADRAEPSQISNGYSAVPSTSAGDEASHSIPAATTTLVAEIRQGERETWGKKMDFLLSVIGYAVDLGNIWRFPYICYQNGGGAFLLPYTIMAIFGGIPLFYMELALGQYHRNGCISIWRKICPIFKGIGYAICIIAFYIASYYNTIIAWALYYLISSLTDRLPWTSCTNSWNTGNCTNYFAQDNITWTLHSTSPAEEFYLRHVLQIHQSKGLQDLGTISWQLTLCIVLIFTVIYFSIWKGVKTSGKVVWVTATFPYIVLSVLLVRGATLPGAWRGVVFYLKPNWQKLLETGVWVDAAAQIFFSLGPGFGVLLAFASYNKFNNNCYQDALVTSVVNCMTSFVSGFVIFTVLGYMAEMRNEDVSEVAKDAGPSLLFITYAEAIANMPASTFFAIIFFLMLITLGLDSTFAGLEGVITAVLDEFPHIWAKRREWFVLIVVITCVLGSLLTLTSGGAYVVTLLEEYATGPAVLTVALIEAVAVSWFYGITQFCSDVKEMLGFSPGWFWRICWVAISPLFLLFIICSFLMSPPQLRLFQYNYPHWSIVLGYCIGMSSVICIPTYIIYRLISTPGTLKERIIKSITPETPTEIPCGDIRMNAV

Row | Compound | pKi [1] | pKi [2] | pKi [3] | pKi [4] | pIC50 (Rattus norvegicus; Rattus norvegicus, Brain) | pIC50 (Rattus norvegicus)
1 | CN1C2CCC1C(C(=O)OCc1ccccc1)C(OC(c1ccc(F)cc1)c1ccc(F)cc1)C2 (stereo unspecified) | 5.69 | 5.65 | 7.40 | 5.36 | 8.66 | 
2 | COC(=O)C1C(OC(c2ccc(F)cc2)c2ccc(F)cc2)CC2CCC1N2C (racemic) | 5.76 | 6.32 | 7.67 | 6.52 |  | 8.54
3 | CCOC(=O)C1C(OC(c2ccc(F)cc2)c2ccc(F)cc2)CC2CCC1N2C (racemic) | 5.43 | 5.99 | 7.58 | 5.73 | 8.44 | 
4 | CN1C2CCC1C(C(=O)OCc1ccccc1)C(OC(c1ccc(F)cc1)c1ccc(F)cc1)C2 (racemic) | 5.48 | 5.39 | 7.04 | 5.29 |  | 8.46
5 | CC(C)OC(=O)C1C(OC(c2ccc(F)cc2)c2ccc(F)cc2)CC2CCC1N2C (racemic) | 4.86 | 5.70 | 7.31 | 5.12 |  | 8.17
6 | COC(=O)C1C(OC(c2ccc(F)cc2)c2ccc(F)cc2)CC2CCC1N2C (single isomer, unassigned; (+)) | 6.16 | 6.57 | 7.89 | 6.88 | 8.82 | 
7 | CCOC(=O)C1C(OC(c2ccc(F)cc2)c2ccc(F)cc2)CC2CCC1N2C (single isomer, unassigned; (+)) | 5.73 | 6.20 | 7.77 | 5.72 |  | 
8 | CC(C)OC(=O)C1C(OC(c2ccc(F)cc2)c2ccc(F)cc2)CC2CCC1N2C (single isomer, unassigned; (+)) | 4.92 | 6.19 | 7.63 | 5.57 | 8.21 | 
9 | CN1C2CCC1CC(OC(c1ccc(F)cc1)c1ccc(F)cc1)C2 (stereo unspecified) [DIFLUOROBENZTROPINE] | 5.49 | 6.21 |  |  |  | 
